In brackets after ≈: the same amount, converted by molar mass. Where two headings read alike, the source gives them in different places.
Columns and labels:
[1] = Dynamic vapor sorption (DVS) hygroscopicity; assay type: physicochemical; conditions: 25 °C
Procedure: The DVS profiles of different solid forms were tested on a SMS Intrinsic instrument, UK. To make sure each sample particle size was uniform, all samples were screened at 100 mesh (ΦA = 0.148 mm). Samples of 10–20 mg were used in the experiments. The DVS data were collected in an RH range of 0–95%. If the sample mass changes by less than 0.02% in 60 min, the next RH is conducted in a 5% step.

[2] = Powder dissolution in SGF and SIF; assay type: physicochemical; conditions: for solubility at 180 min: thermodynamic from solid, 50 rpm, read-out: maximum solubility
Procedure: CUR-L-CN dissolves quickly and reaches its maximum concentration in 20 min. […] To understand this phenomenon, the residual powders after dissolution experiments were filtered and dried for PXRD analysis.
A mini bath dissolution device was used in the experiments, and a Julabo-5 heater was equipped for heating. The experiments were conducted at 37 °C with a rotational speed of 50 rpm. […] The dissolution rate experiments were measured in SGF and SIF containing 0.5% tween 80. SGF was prepared by diluting 16.4 mL of 10% HCl solution to 1000 mL with pure water. To prepare SIF, 6.8 g of KH2PO4 was dissolved in 500 mL of water; then, the pH was adjusted to 6.8 with NaOH solution with a concentration of 0.1 mol/L. At specified time points, i.e., 5 min, 10 min, 15 min, 20 min, 25 min, 30 min, 40 min, 50 min, 60 min, 90 min, 120 min, and 180 min, 0.5 mL of solution was withdrawn with a syringe. The collected solution was filtered through a 0.45 µm nylon filter and then subjected to HPLC determination. The dissolution studies of each solid form were conducted in triplicate (n = 3). After dissolution experiments, the residual samples were filtered and dried under vacuum for PXRD analysis.
The equipment has a diode array detector. An Agilent Zorbax Eclipse Plus C18 column was used in the experiments; it has a diameter of 4.6 mm, a length of 150 mm, and a filling aperture of 5 µm. The mobile phase contained 52% glacial acetic acid (4%) aqueous solution and 48% acetonitrile. The column temperature was set as 35 °C, and the UV-vis wavelength was set to 430 nm. A 10 µL sample was injected each time and the flow rate of the mobile phase was aet as 1 mL/min.

[3] = Wettability test by film flotation; assay type: physicochemical
Procedure: To confirm the hypothesis given in the section discussing […] surface analysis, wettability tests using film flotation methods were conducted in SGF with/without surfactants. […] The wettability test was performed in pure SGF and SGF with 0.1% sodium dodecyl sulfonate (SDS) or tween 80 using film flotation methods.

[4] = Oral pharmacokinetic study in rats; assay type: in vivo; conditions: Sprague Dawley, rat, fasted male rats, oral 200 mg/kg in soybean oil, plasma treated with β-glucuronidase/sulfatase
Procedure: The in vivo pharmacokinetic investigations of the CUR-L-CN co-crystal and the marketed CUR crystal were carried out in fasted male rats. In vivo, CUR is easily conjugated, and it can be conjugated with glucuronic acid and sulfate to form monoglucuronides, monosulfates, and mixed glucuronide/sulfates.
After administration, approximately 0.4 mL of blood was collected from the orbit of the rats into heparinized tubes at 20 min, 40 min, 1 h, 1.5 h, 2.5 h, 4 h, 6 h, and 8 h. Plasma samples (100 μL) were precisely aspirated and vortexed with 50 μL of β-glucuronidase and sulfatase buffer at 37 °C for 60 min. Plasma samples were protein precipitated by adding 0.45 mL of methanol (0.2% acetic acid). After 10 min of shaking, the samples were centrifuged at 14,000 rpm for 3 min. Subsequently, the supernatants were analyzed via HPLC/MS. All experimental procedures were approved by the Animal Ethics Committee.
HPLC methods and conditions were the same as 4.13. A 10 µL sample was injected each time, and the flow rate of the mobile phase was set as 0.6 mL/min.
The AUC0–t was calculated from plasma concentrations observed from 0 to 8 h using a linear trapezoidal approach.

[5] = rats, intravenous and oral administration; cited from earlier work
[6] = set-up: method as in U.S. Expert Review Board; conditions: adults; ref U.S. Expert Review Board; cited from earlier work

COc1cc(/C=C/C(=O)CC(=O)/C=C/c2ccc(O)c(OC)c2)ccc1O [CUR, Curcumin]
mass change ([1]; during 0%-95% RH): nearly no mass change
time to reach maximum concentration in dissolution ([2]; powder dissolution, 37 °C): continues to increase over 180 min
solubility at 180 min ([2]; simulated gastric fluid (SGF) with 0.5% tween 80, aqueous with cosolvent or surfactant or cyclodextrin, SGF containing 0.5% tween 80, 37 °C): 48.2 µg/mL (≈ 131 µM)
solubility at 180 min ([2]; simulated intestinal fluid (SIF) with 0.5% tween 80, aqueous with cosolvent or surfactant or cyclodextrin, SIF pH 6.8 containing 0.5% tween 80, 37 °C): 24.5 µg/mL (≈ 66.5 µM)
wettability (powder sinking) ([3]; SGF containing 0.1% SDS, after 10 min): only a small quantity of CUR had sunk
wettability (powder sinking) ([3]; SGF without surfactant): could not sink into the fluid
Cmax [4]: 67.9 ng/mL
Tmax [4]: 1.5 h
AUC(0-t) ([4]; 0 to 8 h, read-out: AUC0–8): 110 ng·h/mL
oral bioavailability [5]: about 1%

C[N+](C)(C)C[C@H](O)CC(=O)[O-] [L-CN, L-carnitine]
water uptake ([1]; at 40% RH): 39.9%
water uptake / water content ([1]; at 95% RH): 174.2%
water that cannot be removed ([1]; when RH decreases to 0%): 23.6%
dose rated as safe as nutritional supplement [6]: 20 mg/kg/day

Source: paper PMC11053631 (Pharmaceuticals, 2024)
